The text below walks through data of the METLIN SMRT retention time set (Domingo-Almenara et al. 2019).

The series is described as follows: gradient 5% acetonitrile 3 min, to 50% in 2 min, to 85% in 15 min, held 3 min, 100 µL/min. The settings on record: column: Zorbax Extend-C18 2.1 x 50 mm; eluents: water / acetonitrile, 0.1% formic acid. In a few lines:
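Values are retention times taken from adduct peaks that software picked and an analyst inspected. The pure standards were run as mixtures of ~100 molecules on HPLC linked to a quadrupole time-of-flight mass spectrometer, in positive and negative ionization mode. A Zorbax Extend-C18 column (2.1 × 50 mm, 1.8 μm) was used at 100 μL/min with water and acetonitrile, each including 0.1% formic acid.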
As to `Cc1cccc(-c2ncccc2CNC(=O)c2ccco2)c1`, the RP-LC retention time stood at 596 s.

`Cc1cccc(C(=O)Nc2c(-c3ccccc3)nc3cc(C)ccn23)c1` displayed an RP-LC retention time of 674 s.

As for `Cc1ccc(-c2c(-c3nn(C)c4ncnc(N5CC[C@H](N6CCCCC6)C5)c34)cnn2C)cc1`, the RP-LC retention time was 657 s.

In turn, `OC(CN1CCN(c2ncccn2)CC1)c1ccc(Br)cc1` (stereo not drawn) had an RP-LC retention time of 607 s.

Regarding `OC[C@H]1O[C@@H](n2cnc3c(NC4CCCC4)ncnc32)C(O)[C@H]1O` (stereo partly drawn), the RP-LC retention time is 630 s.

On to `Cc1cc(C)c(NC(=O)C2CCCN(c3nc4ccccc4nc3C(F)(F)F)C2)c(C)c1` (stereo not drawn), for which the RP-LC retention time was 701 s.

Take `O=S(=O)(c1cccc2nsnc12)N1CCCC(Cc2noc(-c3cnccn3)n2)C1` (stereo not drawn): the RP-LC retention time stood at 858 s.

As for `Cc1cc(C)nc(N2CCN(c3cccc(Cl)c3)CC2)n1`, the RP-LC retention time was found to be 1060 s.

For the molecule `O=C(COc1ccccc1)Nc1cnc(-c2cccnc2)nc1`, the RP-LC retention time amounted to 678 s.

Molecule `COCCN(Cc1ccc(C(C)C)cc1)Cc1cc(=O)n2cccc(C)c2n1` showed an RP-LC retention time of 728 s.

On to `COc1ccc(-c2n[nH]c3c2C(c2cccc(O)c2)N(C)C3=O)cc1` (stereo not drawn), for which the RP-LC retention time turned out to be 686 s.

Turning to `CCCc1ccc(S(=O)(=O)N2CCC3(CCC(CN4CCN(C)CC4)O3)CC2)cc1` (stereo not drawn), the RP-LC retention time stood at 654 s.

`Cc1nc(N2CCOCC2)c2c(C(=O)Nc3ccccc3F)c(C)oc2n1` displayed an RP-LC retention time of 805 s.

As for `NS(=O)(=O)c1cccnc1Nc1ccc(Cl)cc1`, the RP-LC retention time worked out at 863 s.

For `O=C(Nc1ccc(OCc2nnc(-c3ccccc3)o2)cc1)c1cccnc1Cl`, the RP-LC retention time turned out to be 793 s.

`Cc1cccc(N2C(=O)CN(Cc3ccccc3)[C@H]3CS(=O)(=O)C[C@H]32)c1` gave an RP-LC retention time of 859 s.

The molecule `CC(C)c1ccc(NC(=O)C2CCN(S(=O)(=O)c3cc(C(=O)N(C)C)cs3)CC2)cc1` displayed an RP-LC retention time of 958 s.

With `Cc1nc(Cn2cccc2C(=O)NC2CCCCCC2)no1`, the RP-LC retention time came out at 879 s.

On to `Cc1nn(-c2ccccc2)c(C)c1S(=O)(=O)N1CCC(C(=O)N2CCc3ccccc32)CC1`, for which the RP-LC retention time is 1020 s.

In turn, `O=C(c1cccs1)N1CCC(Nc2ncnc3c2CCC3)C1` (stereo not drawn) registered an RP-LC retention time of 547 s.

Regarding `CS(=O)(=O)N1CCN(CCNC(=O)NCc2cccc3ccccc23)CC1`, the RP-LC retention time was 570 s.

Regarding `COCCOC(=O)C1=C(C)NC(C)=C(C(=O)OC/C=C/c2ccccc2)C1c1cccc([N+](=O)[O-])c1` (stereo not drawn), the RP-LC retention time turned out to be 1210 s.

Take `CC(O)CNC(=O)C1CCN(c2ccc(Sc3ccc(C(C)C)cc3)nn2)CC1` (stereo not drawn): the RP-LC retention time was 704 s.

In turn, `Cn1cc(-c2ccncc2)cc1C(=O)NCc1ccccc1Br` came in with an RP-LC retention time of 655 s.

In turn, `CC(C)N1CCN(C(=O)C2CCN(c3nc4ccc(-c5ccccc5)nc4s3)CC2)CC1` returned an RP-LC retention time of 696 s.

`Cc1csc(-c2cc(S(=O)(=O)Nc3ccc(F)cc3Cl)c(C)s2)n1` registered an RP-LC retention time of 1040 s.

With `CC(C)n1cnc2cc(CNC(=O)Cc3c[nH]c4ccccc34)ccc21`, the RP-LC retention time was found to be 604 s.

`CCCCC#Cc1nc(NC)c2ncn([C@@H]3O[C@H](CO)C(O)[C@@H]3O)c2n1` (stereo partly drawn): the RP-LC retention time amounted to 724 s.

For the molecule `CCOc1ccccc1N1CCN(Cc2cc(C)[nH]n2)CC1`, the RP-LC retention time is 612 s.

With `Cc1ncsc1CN1CCn2c(nnc2[C@@H]2C[C@@H](O)CN2Cc2cccnc2)C1`, the RP-LC retention time was determined as 544 s.

Turning to `CC(=O)c1cccc(NC(=O)c2sc3ccccc3c2Cl)c1`, the RP-LC retention time amounted to 988 s.

`COc1ccc(-c2nc3ccccn3c2Nc2ccc(C)cc2)cc1O` displayed an RP-LC retention time of 663 s.

Turning to `Cc1ccc(Nc2c(-c3cccc(O)c3)nc3cnccn23)cc1Cl`, the RP-LC retention time turned out to be 829 s.
